# Patent US11591288B2, “Compositions and methods for treating atherosclerotic cardiovascular disease” (GAVISH-GALILEE BIO APPLICATIONS LTD., priority 2017, dated 2023)
# Key:
# J774A.1 macrophages [1] = experiment: rePON1 influx to J774A.1 macrophages (FITC-rePON1, FACS); format: cell-based, murine; conditions: 16 h, 61.62 for rePON1-FITC alone
# Protocol: rePON1 (2 mg/ml) was reacted with fluorescein isothiocyanate (FITC) (200 μg/ml) for 1 h at 37° C. in the dark in borate buffer (PH=8.6). Glycine 10 mM was added and the solution was dialyzed using PBS buffer to remove FITC excess. RePON1-FITC conjugate (50 μg/ml) was incubated with lyso-DGTS at different concentration (10, 20, 50 and 100 μg/ml) into RPMI for 2 h. The solution was added to J774A.1 macrophages and incubated for 16 h. Cells were washed three times with sterile PBS buffer (0.1% sodium azid, 0.2% bovine serum albumin (BSA)), harvested in PBS (buffer) and analyzed by fluorescence-activated cell sorting (FACS) (Facscalibur 4ca). Results are presented as mean fluorescence intensity (MFI).
# RePON1 was labeled with FITC and incubated with lyso-DGTS at different concentrations (10, 20, 50, and 100 μg/ml) for 2 h. Each solution was added to J774A.1 macrophages and incubated at 37° C. for 16 h, and then analyzed by fluorescence-activated cell sorting (FACS). […] The MFI increased from 61.62 for rePON1-FITS alone to 131.02, 368.61, 386.46, and 517.45 for rePON1 incubated with lyso-DGTS at 10, 20, 50, and 100 μg/ml, respectively (FIG. 6B).
# serum PON1 = molecular target: T1, serum PON1 (Mus musculus, UniProt P52430); experiment: Serum PON1 lactonase activity of Balb/c mice fed with high fat diet; format: in vivo; conditions: HFD mice, lyso-DGTS 1.43 mg/ml via s.c. osmotic mini-pump, 28 days; vs vehicle
# T1 construct: from tissue; host or cells: serum of Balb/c mice
# T1 sequence (P52430 whole entry): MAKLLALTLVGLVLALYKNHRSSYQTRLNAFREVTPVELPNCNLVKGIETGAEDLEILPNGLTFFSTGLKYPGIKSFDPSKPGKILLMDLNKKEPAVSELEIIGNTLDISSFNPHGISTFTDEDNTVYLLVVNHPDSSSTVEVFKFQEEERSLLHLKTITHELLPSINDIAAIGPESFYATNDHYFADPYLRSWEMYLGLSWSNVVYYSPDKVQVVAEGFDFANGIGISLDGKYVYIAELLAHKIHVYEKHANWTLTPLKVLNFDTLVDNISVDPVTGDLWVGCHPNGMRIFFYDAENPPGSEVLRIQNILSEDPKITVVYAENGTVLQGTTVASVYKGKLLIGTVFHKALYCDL
# Protocol: Eight weeks old Balb/c mice where fed with normal rodent diet (the “non” group n=11) for 12 weeks or with high-fat diet (HFD) for 8 weeks. After 8 weeks, the HFD group was divided into two groups both treated via osmotic mini-pumps implanted subcutaneously: (1) vehicle group (the pumps contained 100 μl of DDW+2% Tween 80; n=9); (2) Lyso-DGTS group (the pumps contained 100 μl lyso-DGTS 1.4 mg/ml in DDW+2% Tween 80; n=1). The mice then continued with the same diet for another 4 weeks. The pumps injected 3.5 μl solution each day for 28 days until the end of the experiment. Blood was drawn and centrifuged at 2000 rpm for five minutes, and the serum was stored at −70° C. until the analyses. Clinical parameters were measured. Serum diluted by 20 with PBS and PON1 lactonase activity was measured using dihydrocumarine assay.
# The effect of lyso-DGTS on lactonase PON1 activity was examined using Balb/c mice fed with HFD. […] At the end of the protocol, blood was withdrawn and clinical parameters and lactonase PON1 activity were measured. […] Lactonase PON1 activity of the mice serum was measured using dehydrocumarine assay.
# J774A.1 macrophages [2] = experiment: Ox-LDL-induced foam cell formation, Oil Red O staining; format: cell-based, murine
# Protocol: J774A.1 macrophage cells were grown in RPMI 1640 media containing 10% FBS in cell culture flask till ˜90% confluence (37° C. incubator containing 5% CO2). The cells were incubated at 37° C. overnight under sterile conditions, approximately 1×10^5 J774.1 cells/well in a 96-well plate. Macrophage cells were incubated for an additional 24 h with lyso-DGTS (50 and 100 μg/ml), rePON1 (50 μg/ml), or rePON1 preincubated with different concentrations of lyso-DGTS (10, 20, 50 and 100 μg/ml). The cells were washed and ox-LDL (25 μg/ml in a RPMI medium) was added for another 24 h to yield foam cells. The cells were washed 3 times with PBS, following fixation with 4% formaldehyde for 10 min, the cells were stained with Oil Red O (0.35 mg/100 ml in 60% isopropanol; Sigma-Aldrich) for 15 min at 37° C. to evaluate the characteristic lipid accumulation in macrophage-derived foam cells. Foam cell formation was observed under microscope.
# The density of lipid content was evaluated by alcohol extraction after staining. The absorbance at 514 nm was measured using microplate reader (Infinite M200 PRO fluorescence spectrophotometer (Tecan)).
# Macrophages uptake of ox-LDL, forming foam cell, is the hallmark of atherogenesis. The ability of lyso-DGTS or rePON1 incubated with lyso-DGTS to attenuate foam cell formation was examined. […]
# rePON1 = rePON1 lactonase activity (dihydrocoumarin assay) after incubation with lyso-DGTS; format: biochemical; conditions: for rePON1 lactonase activity: 2 h incubation, 37° C., 3.00 units without lyso-DGTS
# Protocol: To 200 μl of rePON1 solution (5 μg/ml) in Tris-HCl buffer pH=8.4 was added 1 μl of lyso-DGTS dissolved in dimethyl sulfoxide (DMSO) to a final concentration of 1, 5, 10, 50, and 100 μg/ml. 1 μl DMSO was added to the control rePON1 solution. The mixtures were incubated at 37° C. for 2, 4, 24 or 48 h.
# 10 μl from each solution were taken to a UV 96-well microplate containing 90 μl Tris-HCL buffer pH=8.4 with 1 mM CaCl2 (activity buffer) in each well. Then 100 μl dihydrocoumarin, 2 mM in the activity buffer was added (prepared from a stock of 100 mM dihydrocoumarin in DMSO). Dihydrocoumarine hydrolysis rate was measured at 270 nm, once in 25 seconds for 15 minutes, using SpectraMax M2 Reader. Non-enzymatic hydrolysis of dihydrocoumarin was subtracted from the total rate of hydrolysis. One unit of lactonase activity was equal to the hydrolysis of 1 μmol of dihydrocoumarin/min.
# The effect of lyso-DGTS on lactonase and arylesterase activities of rePON1 was examined. rePON1 (5 μg/ml in Tris buffer pH=8.4) was incubated with different concentrations of lyso-DGTS for 2, 4, 24, and 48 h at 37° C., and its lactonase and aryesterase activities were measured using dihydrocoumarin and phenyl acetate assays, respectively.
smiles,measurement,setting,value
"CC/C=C\C/C=C\C/C=C\C/C=C\C/C=C\CCCC(=O)OCC(O)COCCC(C(=O)[O-])[N+](C)(C)C (stereo not drawn) [lyso-DGTS, lyso-diacylglyceryltrimethylhornmoserine]",mean fluorescence intensity (MFI) of FITC-rePON1 in cells,J774A.1 macrophages [1]; 10 μg/ml lyso-DGTS,131.02
same,mean fluorescence intensity (MFI) of FITC-rePON1 in cells,J774A.1 macrophages [1]; 20 μg/ml lyso-DGTS,368.61
same,mean fluorescence intensity (MFI) of FITC-rePON1 in cells,J774A.1 macrophages [1]; 50 μg/ml lyso-DGTS,386.46
same,mean fluorescence intensity (MFI) of FITC-rePON1 in cells,J774A.1 macrophages [1]; 100 μg/ml lyso-DGTS,517.45
same,increase of serum lactonase PON1 activity,serum PON1,~2.3 units
same,enhancement of rePON1 ability to inhibit foam cell formation,"J774A.1 macrophages [2]; 100 μg/ml lyso-DGTS vs rePON1 alone, not significant",~10%
same,reduction of oil red staining intensity,"J774A.1 macrophages [2]; lyso-DGTS (50 μg/ml) alone, then ox-LDL 25 μg/ml 24 h",32%
same,rePON1 lactonase activity,rePON1; 1 μg/ml lyso-DGTS,4.05 units
same,rePON1 lactonase activity preserved after incubation for 48 h,rePON1; 1 μg/ml lyso-DGTS,9%
same,rePON1 lactonase activity,rePON1; 5 μg/ml lyso-DGTS,5.73 units
same,rePON1 lactonase activity preserved after incubation for 48 h,rePON1; 5 μg/ml lyso-DGTS,33%
same,rePON1 lactonase activity,rePON1; 10 μg/ml lyso-DGTS,8.10 units
same,rePON1 lactonase activity preserved after incubation for 48 h,rePON1; 10 μg/ml lyso-DGTS,49%
same,rePON1 lactonase activity,rePON1; 50 μg/ml lyso-DGTS,11.61 units
same,rePON1 lactonase activity preserved after incubation for 48 h,rePON1; 50 μg/ml lyso-DGTS,69%
same,rePON1 lactonase activity,rePON1; 100 μg/ml lyso-DGTS,12.7 units
same,rePON1 lactonase activity preserved after incubation for 48 h,rePON1; 100 μg/ml lyso-DGTS,66%
same,time for which rePON1 lactonase activity is stabilized and preserved,"rePON1; in buffer solution, abolished after 48 h without lyso-DGTS",at least 48 h
